Consider 1 compound from patent US20170182080A1, “FUNCTIONAL SCAFFOLD FOR TISSUE REPAIR AND REGENERATION” (priority 2014, published 2017).

Assay [1] has as its system adipose cell 3D culture. Description: Anti-MyoD staining, myogenesis differentiation in adipose cell 3D culture. The assay is classed as cell-based. Conditions: w/AZA-CR. From the text:
A myogenic marker such as MyoD was stained on day 14 adipose cell 3D culture. The anti-MyoD antibody is a monoclonal available from Pierce.

In assay [2] the test system is rat adipose derived cells. Description: Ki-67 proliferation marker immunohistochemical staining in 3D TG-Gel culture. The format is cell-based. As for the experimental part: 10^6/m1 rat adipose derived cells was suspended in the gelatin-transglutaminase crosslinked gel also referred to TG-Gel. Gel concentrations ranged from 3%, 4.5%, 6%, and 7.5%. A cell suspension in 20 μL volume was transferred in each well of 48 well culture plate followed by incubation at 37° C. for 30 min for gelation. 1.0 ml of medium (10%FBS/DMEM) with 5 nM Aza was added in each well and the plate was placed in a 5% CO2 37° C. incubator for 5 day culture. At day 5, cell proliferation marker (Ki-67) immune histochemical staining was performed on 3D culture. Medium without Aza was used as control.
The detection of Ki67, a proliferation marker, was performed using Anti-Ki-67 (Rabbit Monoclonal antibody, Clone SP6, from Thermo Scientific).

In assay [3] the test system is >8 month old retired rats. Description: Cranial defect model, bone growth and healing by histology. The format is in vivo, rat. Conditions: 500 nM Aza in collagen sponge; 5 mm skull defect; no exogenous BMP-2; four weeks. As for the experimental part: Collagen matrix (as described above) was prepared and cut into 5 mm discs. An 5 mm diameter circular opening was created in the skull of >8 month old retired rats using circular drill bit including a lip to restrict the depth of the circular cutting. 500 nM of Aza was applied directly into the collagen sponge before implantation. Control included collagen discs without added Aza-CR but same volume of PBS. After four weeks of implantation, bone growth and healing status were evaluated histologically.

In assay [4] the test system is rat adipose derived cells. The assay can be described thus: Alkaline phosphatase (ALP) activity, osteogenic differentiation in 3D TG-Gel culture. The format is cell-based. To be noted: day 5. As for the experimental part: (§1) Using the matrix as described above, the medium was changed to regular growth medium at day 5 and maintained for 14 days. Alkaline phosphatase (ALP) activity and staining were performed to characterize early osteogenesis at day 5 and calcium staining at day 14. ALP activity was determined by biochemical assay based on conversion of p-nitrophenyl phosphate to p-nitrophenol (pNPP), which was measured spectrophotometrically at 405 nm absorbance. Briefly, TG-Gel-Cell, a transglutaminase crosslinked gelatin gel and cell mixture, construct was washed twice with PBS and homogenized with buffer solution (0.25% TritonX-100 in PBS). After three freezing-thawing cycles, cells were released from TG-Gel by adding 50 μL of 0.25% trypsin and incubated at 37° C. for 4 hours. ALP activity was then quantified by using p-NPP as a substrate (Pierce, USA). The absorbance was measured by a multiplate reader (Molecular Devices, CA) after 30 minutes of incubation at 37° C. The ALP activity was specified as an arbitrary unit of ALP absorbance that normalized with cell numbers. Alizarin Red S staining as late marker of osteogenic differentiation was performed to determine the degree of calcium deposition as described. […] The supernatant was collected and absorbance was measured by a multiplate reader (Molecular Devices, CA).

Assay [5] concerns Fisher rats. Description: Cartilage defect model (osteochondral defect in trochlear groove), histology. The assay is classed as in vivo, rat. Conditions: 4.5% Tg-Gel + 50 μL Aza (500 nM) implanted in defect; at 7 days; cell morphology resembles chondrogenic cells. As for the experimental part:
Fisher rats (7-8-weeks old, 200-250 g each) were used in this study. They were randomly enrolled into two experimental groups,A, 4.5% Tg-Gel +50 μL PBS and B, 4.5% Tg-Gel +50 μL Aza (500 nM), 4 animals per group. A 3-mm diameter×2-mm deep osteochondral defect was drilled into the rat trochlear groove, using a dermal biopsy punch (Miltex, Inc.). Implant gel was placed in the defect area. Skin was closed with 4-0 suture. […]
Fisher rats (7-8-weeks old, 200-250 g each) were used in this study. They were randomly enrolled into two experimental groups,A, 4.5% Tg-Gel+50 μL PBS and B, 4.5% Tg-Gel+50 μL Aza (500 nM), 4 animals per group. A 3-mm diamete×2-mm deep osteochondral defect was drilled into the rat trochlear groove, using a dermal biopsy punch (Miltex, Inc.). Implant gel was placed in the defect area. Skin was closed with 4-0 suture. […]

The subject of assay [6] is rat adipose derived cells. The assay can be described thus: Alizarin Red S calcium deposition, osteogenic differentiation in 3D TG-Gel culture. The assay is classed as cell-based. Conditions: day 14. As for the experimental part: as §1, with “CA). […]” for “CA).”
For assay [7], the system named is MSC or adipose cells. Description: Anti-N-cadherin staining, cardiomyocyte differentiation. The format is cell-based. To be noted: w/AZA-CR; 4.5% TG-Gel.

Consider `Nc1ncn([C@@H]2O[C@H](CO)[C@@H](O)[C@H]2O)c(=O)n1` [AZA-CR, 5-azacytidine], for which the “Anti-MyoD on day 14, Center and Peripheral (evenly distributed)” value is reported as ~80% Evenly Distributed in assay [1] (4.5% TG-Gel) and ~70% Evenly Distributed in assay [1] (6% TG-Gel). Besides, the “Ki67 positive staining, Aza group versus control” value in assay [2] (3%-4.5% gel condition) is listed as “no difference”; in assay [2] (6%-7% gel condition, evenly distributed in whole 3D construct) it was “significantly more positive stained cells”. In addition, the “Anti - Ki67, Center” value in assay [2] (w/AZA-CR (5 nM Aza in medium), 4.5% TG-Gel, day 5) is given as ~30%. The “Anti - Ki67, Center and Peripheral (evenly distributed)” value in assay [2] (w/AZA-CR (5 nM Aza in medium), 6% TG-Gel, day 5) is “Evenly distributed (~80%)”; in assay [2] (w/AZA-CR (5 nM Aza in medium), 7.5% TG-Gel, day 5), “Evenly distributed (~50%)”. In addition, the “bone remodeling at the bony defect site” value in assay [3] is “significant bone remodeling”. Moreover, the ALP activity entry in assay [4] (versus without AZA-CR) is reported as “enhanced”. The “TG-Gel concentration at which ALP peaked” value in assay [4] (with and without AZA-CR) came to 6 % TG-Gel. Also, the “histology of osteochondral defect site, area adjacent to subchondral bone” value in assay [5] is reported as “neo cell infiltration”. Also, in assay [6] (versus without AZA-CR), the calcium deposition entry was “enhanced”. For the same compound, the “TG-Gel concentration at which calcium deposition peaked” value in assay [6] (with and without AZA-CR) was 9 % TG-Gel. In addition, in assay [7], the “Anti-N-Cadherin, Center” value is ~50%.
